Data as given in publication PMC5923269, “The Ustilago maydis repetitive effector Rsp3 blocks the antifungal activity of mannose-binding maize proteins” (Nature Communications, 2018).

Target: T1, AFP1 (Anti-Fungal Protein 1; AFP1-His) (Zea mays, UniProt B4FUR2)
T1 construct: full-length with own signal peptide, secreted; C-terminal His tag; transient expression in Nicotiana benthamiana, NTA-purified from apoplastic fluid; two DUF26 domains
T1 sequence (B4FUR2 26-268): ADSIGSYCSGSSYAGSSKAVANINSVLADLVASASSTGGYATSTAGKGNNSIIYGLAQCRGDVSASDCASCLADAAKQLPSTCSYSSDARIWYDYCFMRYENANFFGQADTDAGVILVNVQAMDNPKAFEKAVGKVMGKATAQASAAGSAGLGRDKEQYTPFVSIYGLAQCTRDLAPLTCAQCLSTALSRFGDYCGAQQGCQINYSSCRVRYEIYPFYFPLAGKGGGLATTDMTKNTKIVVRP
Assay: pull-down on mannose-agarose beads, anti-His western blot
Type: binding
Conditions: mannose immobilised on agarose; 10 mM Tris-HCl pH 7.5, 20 mM CaCl2, 1 M NaCl, 0.05% Tween-20, 4 °C, 1 h

In the case of `OC[C@H]1OC(O)[C@@H](O)[C@@H](O)[C@@H]1O` (stereo partly shown) [mannose], the “pull-down on mannose-agarose beads, anti-His western blot” value is reported as “strong binding was observed for wild type AFP1-His”.
